Assay results reported in patent US20240315244A1, “ANTIVIRAL COATING AGENT, ANTIVIRAL AGENT, LAMINATED BODY, AND PACKAGE OR CONTAINER” (National Institute for Materials Science, priority 2021, published 2024).

Test: solubility in organic solvents
Format: physicochemical

- solubility in low-polarity solvents (low-polarity solvents, such as ethyl acetate): insoluble
- solubility in polar solvents (polar solvents, such as NPM or MEK): soluble
SMILES: O=C(OCC1OC(OC(=O)c2cc(O)c(O)c(OC(=O)c3cc(O)c(O)c(O)c3)c2)C(OC(=O)c2cc(O)c(O)c(OC(=O)c3cc(O)c(O)c(O)c3)c2)C(OC(=O)c2cc(O)c(O)c(OC(=O)c3cc(O)c(O)c(O)c3)c2)C1OC(=O)c1cc(O)c(O)c(OC(=O)c2cc(O)c(O)c(O)c2)c1)c1cc(O)c(O)c(OC(=O)c2cc(O)c(O)c(O)c2)c1 (centres unmarked) [tannic acid, Tannic acid]
